Results from ChEMBL document CHEMBL1817560, “Selectivity of kinase inhibitor fragments” (J Med Chem, 2011).

Tests used:
[1] = biological target: Rho-associated protein kinase 1 (Homo sapiens) (UniProt Q13464); experiment: Inhibition of ROCK1 expressed in Escherichia coli or baculovirus-infected insect cells at 400 uM by IMAP assay
[2] = biological target: Receptor-interacting serine/threonine-protein kinase 2 (Homo sapiens) (UniProt O43353); experiment: Inhibition of RIP2 expressed in Escherichia coli or baculovirus-infected insect cells at 400 uM by fluorescence polarization assay
Receptor-interacting serine/threonine-protein kinase 2 (Homo sapiens), sequence (O43353 whole entry): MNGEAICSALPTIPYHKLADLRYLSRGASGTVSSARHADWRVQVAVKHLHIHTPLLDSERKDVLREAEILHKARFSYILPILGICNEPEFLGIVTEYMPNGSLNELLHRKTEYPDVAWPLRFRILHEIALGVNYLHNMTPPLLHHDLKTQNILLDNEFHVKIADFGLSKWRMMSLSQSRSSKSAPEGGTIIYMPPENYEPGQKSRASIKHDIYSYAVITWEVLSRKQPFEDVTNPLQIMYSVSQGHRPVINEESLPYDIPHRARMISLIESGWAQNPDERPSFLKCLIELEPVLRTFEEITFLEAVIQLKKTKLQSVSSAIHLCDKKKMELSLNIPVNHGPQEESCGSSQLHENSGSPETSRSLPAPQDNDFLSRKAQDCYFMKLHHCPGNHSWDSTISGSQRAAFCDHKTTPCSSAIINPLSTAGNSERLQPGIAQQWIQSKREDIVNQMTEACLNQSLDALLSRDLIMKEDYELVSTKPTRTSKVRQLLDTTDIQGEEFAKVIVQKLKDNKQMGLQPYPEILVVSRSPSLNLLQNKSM

[3] = biological target: Receptor tyrosine-protein kinase erbB-2 (Homo sapiens) (UniProt P04626); experiment: Inhibition of ErbB2 expressed in Escherichia coli or baculovirus-infected insect cells at 400 uM by TR-FRET assay
Receptor tyrosine-protein kinase erbB-2 (Homo sapiens), sequence (P04626 whole entry, canonical isoform): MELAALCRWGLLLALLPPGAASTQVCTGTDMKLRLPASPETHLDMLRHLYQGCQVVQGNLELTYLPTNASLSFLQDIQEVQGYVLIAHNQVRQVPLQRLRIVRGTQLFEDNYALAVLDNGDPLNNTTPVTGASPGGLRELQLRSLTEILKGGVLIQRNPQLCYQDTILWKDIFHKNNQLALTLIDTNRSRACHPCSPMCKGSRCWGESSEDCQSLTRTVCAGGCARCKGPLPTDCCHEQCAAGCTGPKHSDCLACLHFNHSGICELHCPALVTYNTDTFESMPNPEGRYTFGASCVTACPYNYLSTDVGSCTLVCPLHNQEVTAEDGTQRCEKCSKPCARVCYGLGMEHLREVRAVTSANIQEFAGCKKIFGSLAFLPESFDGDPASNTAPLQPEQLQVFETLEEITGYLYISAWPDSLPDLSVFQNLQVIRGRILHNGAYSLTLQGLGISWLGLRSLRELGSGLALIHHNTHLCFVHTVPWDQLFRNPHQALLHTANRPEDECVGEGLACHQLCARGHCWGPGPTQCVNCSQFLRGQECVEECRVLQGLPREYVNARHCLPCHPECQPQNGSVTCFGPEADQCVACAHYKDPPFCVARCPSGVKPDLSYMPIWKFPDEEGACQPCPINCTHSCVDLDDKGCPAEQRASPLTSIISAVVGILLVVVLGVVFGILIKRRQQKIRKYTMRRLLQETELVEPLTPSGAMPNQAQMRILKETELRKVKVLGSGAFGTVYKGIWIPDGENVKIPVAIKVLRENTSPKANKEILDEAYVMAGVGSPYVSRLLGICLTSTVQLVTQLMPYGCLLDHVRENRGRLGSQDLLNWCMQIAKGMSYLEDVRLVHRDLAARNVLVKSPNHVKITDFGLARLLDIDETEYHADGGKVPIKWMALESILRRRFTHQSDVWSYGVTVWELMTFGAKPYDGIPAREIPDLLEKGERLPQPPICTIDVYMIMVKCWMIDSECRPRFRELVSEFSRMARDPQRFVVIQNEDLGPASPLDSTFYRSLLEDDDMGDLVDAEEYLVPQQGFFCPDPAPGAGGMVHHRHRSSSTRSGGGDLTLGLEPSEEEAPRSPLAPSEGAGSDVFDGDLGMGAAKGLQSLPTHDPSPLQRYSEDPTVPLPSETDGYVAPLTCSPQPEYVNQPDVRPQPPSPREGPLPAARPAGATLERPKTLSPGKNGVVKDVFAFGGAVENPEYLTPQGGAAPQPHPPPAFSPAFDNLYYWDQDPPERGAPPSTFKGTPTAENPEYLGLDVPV

[4] = biological target: T1, Phosphatidylinositol 4,5-bisphosphate 3-kinase catalytic subunit delta isoform (Homo sapiens) (UniProt O00329); experiment: Inhibition of PI3Kdelta expressed in Escherichia coli or baculovirus-infected insect cells using gamma-[33P]ATP at 400 uM by scintillation proximity assay
T1 sequence (whole entry): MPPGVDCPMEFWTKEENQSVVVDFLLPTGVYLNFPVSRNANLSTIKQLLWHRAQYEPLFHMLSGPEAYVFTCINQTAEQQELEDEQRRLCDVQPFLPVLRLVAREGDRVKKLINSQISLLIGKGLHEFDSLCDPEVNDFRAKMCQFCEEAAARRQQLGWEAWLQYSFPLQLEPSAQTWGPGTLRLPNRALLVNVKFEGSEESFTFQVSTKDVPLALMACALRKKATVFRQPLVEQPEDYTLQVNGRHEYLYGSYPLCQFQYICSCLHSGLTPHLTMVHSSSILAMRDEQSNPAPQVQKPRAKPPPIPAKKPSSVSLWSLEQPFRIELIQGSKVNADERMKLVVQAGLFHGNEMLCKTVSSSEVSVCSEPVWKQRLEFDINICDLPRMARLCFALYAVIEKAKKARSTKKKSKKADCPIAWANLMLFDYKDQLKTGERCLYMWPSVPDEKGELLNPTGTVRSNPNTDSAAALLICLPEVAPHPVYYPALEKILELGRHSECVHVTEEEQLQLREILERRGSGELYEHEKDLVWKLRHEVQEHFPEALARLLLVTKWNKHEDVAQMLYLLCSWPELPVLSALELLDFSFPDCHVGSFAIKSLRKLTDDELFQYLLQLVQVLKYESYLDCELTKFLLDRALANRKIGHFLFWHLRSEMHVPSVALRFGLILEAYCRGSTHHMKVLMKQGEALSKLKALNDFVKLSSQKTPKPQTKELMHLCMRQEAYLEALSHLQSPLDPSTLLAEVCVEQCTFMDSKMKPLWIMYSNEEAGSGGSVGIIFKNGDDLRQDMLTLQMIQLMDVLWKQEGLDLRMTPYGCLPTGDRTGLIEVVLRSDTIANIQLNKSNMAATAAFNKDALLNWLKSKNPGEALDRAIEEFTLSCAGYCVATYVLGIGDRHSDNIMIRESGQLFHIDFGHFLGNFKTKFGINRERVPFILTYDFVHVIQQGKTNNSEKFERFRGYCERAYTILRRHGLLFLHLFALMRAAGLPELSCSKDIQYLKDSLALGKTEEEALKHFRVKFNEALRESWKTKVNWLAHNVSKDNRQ

[5] = biological target: T2, Inhibitor of nuclear factor kappa-B kinase subunit beta (Homo sapiens) (UniProt O14920); experiment: Inhibition of IKK-beta expressed in Escherichia coli or baculovirus-infected insect cells at 667 uM by TR-FRET assay
T2 sequence (whole entry): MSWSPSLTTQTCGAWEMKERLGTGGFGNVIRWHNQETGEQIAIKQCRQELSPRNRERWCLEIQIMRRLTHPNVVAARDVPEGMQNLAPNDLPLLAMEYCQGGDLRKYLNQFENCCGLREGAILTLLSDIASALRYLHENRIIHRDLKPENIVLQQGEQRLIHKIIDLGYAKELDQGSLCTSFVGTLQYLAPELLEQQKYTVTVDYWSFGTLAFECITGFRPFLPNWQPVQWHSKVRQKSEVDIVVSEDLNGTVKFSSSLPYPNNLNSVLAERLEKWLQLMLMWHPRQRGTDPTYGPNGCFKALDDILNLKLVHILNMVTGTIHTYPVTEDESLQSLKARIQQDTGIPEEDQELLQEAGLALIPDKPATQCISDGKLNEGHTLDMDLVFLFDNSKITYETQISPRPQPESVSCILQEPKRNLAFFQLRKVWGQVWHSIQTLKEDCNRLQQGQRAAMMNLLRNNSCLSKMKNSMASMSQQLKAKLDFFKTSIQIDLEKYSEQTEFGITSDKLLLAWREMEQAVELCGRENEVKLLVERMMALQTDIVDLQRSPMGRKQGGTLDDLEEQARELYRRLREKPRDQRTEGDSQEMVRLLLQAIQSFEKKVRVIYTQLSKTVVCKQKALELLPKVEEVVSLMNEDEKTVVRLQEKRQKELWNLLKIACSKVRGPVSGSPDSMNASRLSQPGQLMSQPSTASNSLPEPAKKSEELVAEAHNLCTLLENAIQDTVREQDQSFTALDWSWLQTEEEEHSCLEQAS

[6] = biological target: T3, Aurora kinase A (Homo sapiens) (UniProt O14965); experiment: Inhibition of AurA expressed in Escherichia coli or baculovirus-infected insect cells at 400 uM by IMAP assay
T3 sequence (whole entry): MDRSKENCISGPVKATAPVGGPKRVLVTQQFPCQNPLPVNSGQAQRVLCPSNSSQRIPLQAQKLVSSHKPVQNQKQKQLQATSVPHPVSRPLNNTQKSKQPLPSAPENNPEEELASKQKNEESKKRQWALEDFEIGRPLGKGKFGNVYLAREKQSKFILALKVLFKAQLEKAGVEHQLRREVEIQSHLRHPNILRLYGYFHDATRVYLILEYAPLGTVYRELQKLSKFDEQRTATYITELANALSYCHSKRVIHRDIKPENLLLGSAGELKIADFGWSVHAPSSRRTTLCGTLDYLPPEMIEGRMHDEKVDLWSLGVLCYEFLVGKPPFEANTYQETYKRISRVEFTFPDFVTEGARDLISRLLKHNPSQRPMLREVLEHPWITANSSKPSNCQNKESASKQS

[7] = biological target: Mitogen-activated protein kinase 8 (Homo sapiens, UniProt P45983); experiment: Inhibition of JNK1 expressed in Escherichia coli or baculovirus-infected insect cells at 667 uM by TR-FRET assay
Mitogen-activated protein kinase 8, sequence (P45983 whole entry): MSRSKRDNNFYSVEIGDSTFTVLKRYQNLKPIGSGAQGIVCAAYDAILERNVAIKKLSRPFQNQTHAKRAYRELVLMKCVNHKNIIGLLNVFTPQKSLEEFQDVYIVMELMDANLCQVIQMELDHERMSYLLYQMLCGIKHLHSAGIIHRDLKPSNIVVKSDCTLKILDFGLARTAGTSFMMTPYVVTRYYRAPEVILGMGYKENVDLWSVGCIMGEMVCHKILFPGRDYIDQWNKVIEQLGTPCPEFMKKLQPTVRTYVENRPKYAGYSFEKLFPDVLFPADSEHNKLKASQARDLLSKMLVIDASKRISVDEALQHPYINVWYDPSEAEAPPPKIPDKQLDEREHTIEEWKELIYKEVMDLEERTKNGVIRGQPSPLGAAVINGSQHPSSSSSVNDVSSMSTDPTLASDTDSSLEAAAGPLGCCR

Rho-associated protein kinase 1 (Homo sapiens), sequence (Q13464 2-1354 limits assumed): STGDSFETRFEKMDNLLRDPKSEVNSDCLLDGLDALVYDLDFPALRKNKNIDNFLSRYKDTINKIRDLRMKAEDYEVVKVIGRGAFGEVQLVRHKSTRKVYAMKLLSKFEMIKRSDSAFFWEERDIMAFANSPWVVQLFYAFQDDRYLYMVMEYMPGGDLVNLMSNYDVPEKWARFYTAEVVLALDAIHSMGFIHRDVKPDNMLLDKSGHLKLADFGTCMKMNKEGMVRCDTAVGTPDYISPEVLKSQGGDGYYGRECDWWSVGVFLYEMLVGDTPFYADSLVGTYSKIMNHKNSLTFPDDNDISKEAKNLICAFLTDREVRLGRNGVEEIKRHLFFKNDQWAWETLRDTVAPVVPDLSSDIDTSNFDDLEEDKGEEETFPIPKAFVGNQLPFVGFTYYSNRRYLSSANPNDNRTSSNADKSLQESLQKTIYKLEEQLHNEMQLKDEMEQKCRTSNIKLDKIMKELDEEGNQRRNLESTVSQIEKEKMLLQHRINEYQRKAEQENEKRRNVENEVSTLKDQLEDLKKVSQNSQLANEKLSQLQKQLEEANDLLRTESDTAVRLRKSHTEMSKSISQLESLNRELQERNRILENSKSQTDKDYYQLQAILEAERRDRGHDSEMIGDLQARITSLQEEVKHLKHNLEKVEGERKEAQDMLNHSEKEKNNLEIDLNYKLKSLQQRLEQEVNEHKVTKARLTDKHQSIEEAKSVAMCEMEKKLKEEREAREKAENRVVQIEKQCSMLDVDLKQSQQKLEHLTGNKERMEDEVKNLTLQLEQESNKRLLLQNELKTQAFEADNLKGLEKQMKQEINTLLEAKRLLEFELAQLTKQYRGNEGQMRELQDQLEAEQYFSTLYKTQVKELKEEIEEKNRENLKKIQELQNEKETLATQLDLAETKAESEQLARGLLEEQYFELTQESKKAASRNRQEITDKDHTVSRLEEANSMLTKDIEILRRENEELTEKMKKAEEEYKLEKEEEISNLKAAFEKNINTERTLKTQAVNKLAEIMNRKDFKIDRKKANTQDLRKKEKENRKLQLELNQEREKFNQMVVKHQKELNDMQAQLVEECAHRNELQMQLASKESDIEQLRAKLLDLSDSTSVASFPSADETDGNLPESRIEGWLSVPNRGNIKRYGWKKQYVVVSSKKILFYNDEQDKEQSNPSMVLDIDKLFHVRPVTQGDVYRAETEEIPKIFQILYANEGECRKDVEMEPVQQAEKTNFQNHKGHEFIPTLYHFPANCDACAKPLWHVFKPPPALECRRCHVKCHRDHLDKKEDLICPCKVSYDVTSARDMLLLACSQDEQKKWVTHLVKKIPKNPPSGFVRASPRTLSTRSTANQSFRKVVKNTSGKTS

c1cnc2[nH]ccc2c1
inhibition [1]: 76%
inhibition [2]: 5%
inhibition [3]: 0%
inhibition [4]: 22%
inhibition [5]: 29%
inhibition [6]: 36%
inhibition [7]: 15%

Nc1ccc2ncc(-c3ccccc3)n2n1
inhibition [1]: 93%
inhibition [2]: 69%
inhibition [3]: 25%
inhibition [4]: 90%
inhibition [5]: 57%
inhibition [6]: 96%
inhibition [7]: 83%

Cc1ccc(C(=O)NC2CC2)cc1F
inhibition [1]: 3%
inhibition [2]: 7%
inhibition [3]: 5%
inhibition [4]: 10%
inhibition [5]: 0%
inhibition [6]: 5%
inhibition [7]: 16%

Cc1ccc(NC(=O)Nc2cccc(C(F)(F)F)c2)cc1
inhibition [1]: 7%
inhibition [2]: 1%
inhibition [3]: 0%
inhibition [4]: 8%
inhibition [5]: 0%
inhibition [6]: 7%
inhibition [7]: 0%

Nc1ncccc1OCc1ccccc1
inhibition [1]: 64%
inhibition [2]: 94%
inhibition [3]: 21%
inhibition [4]: 36%
inhibition [5]: 0%
inhibition [6]: 40%
inhibition [7]: 18%

c1ccc(Nc2ncccn2)cc1
inhibition [1]: 10%
inhibition [2]: 24%
inhibition [3]: 4%
inhibition [4]: 19%
inhibition [5]: 8%
inhibition [6]: 89%
inhibition [7]: 74%

c1ccc2[nH]ncc2c1 [INDAZOLE]
inhibition [1]: 80%
inhibition [2]: 0%
inhibition [3]: 0%
inhibition [4]: 10%
inhibition [5]: 15%
inhibition [6]: 37%
inhibition [7]: 13%

c1ccc(Nc2ccccc2)cc1
inhibition [1]: 0%
inhibition [3]: 0%
inhibition [4]: 7%
inhibition [5]: 0%
inhibition [6]: 0%
inhibition [7]: 1%

Nc1n[nH]c2ncccc12
inhibition [1]: 46%
inhibition [2]: 10%
inhibition [3]: 9%
inhibition [4]: 18%
inhibition [5]: 65%
inhibition [6]: 92%
inhibition [7]: 20%

CC(C)(C)c1cc(NC(=O)Nc2ccccc2)no1
inhibition [1]: 9%
inhibition [2]: 7%
inhibition [3]: 0%
inhibition [4]: 41%
inhibition [5]: 2%
inhibition [6]: 27%
inhibition [7]: 4%

c1n[nH]c2c1CCCC2
inhibition [1]: 25%
inhibition [2]: 2%
inhibition [3]: 0%
inhibition [4]: 16%
inhibition [5]: 0%
inhibition [6]: 27%
inhibition [7]: 13%

Cc1ccc(NC(=O)Nc2cc(C(C)(C)C)nn2-c2ccccc2)cc1
inhibition [1]: 6%
inhibition [2]: 0%
inhibition [3]: 2%
inhibition [4]: 27%
inhibition [5]: 3%
inhibition [6]: 7%
inhibition [7]: 2%

Nc1[nH]nc2ccccc12
inhibition [1]: 65%
inhibition [2]: 11%
inhibition [3]: 1%
inhibition [4]: 19%
inhibition [5]: 47%
inhibition [6]: 84%
inhibition [7]: 34%

c1ccc(-c2cnc3nccnn23)cc1
inhibition [1]: 0%
inhibition [2]: 0%
inhibition [3]: 0%
inhibition [4]: 42%
inhibition [5]: 0%
inhibition [6]: 0%
inhibition [7]: 14%

Nc1[nH]cnc2ncnc1-2
inhibition [1]: 80%
inhibition [2]: 11%
inhibition [3]: 3%
inhibition [4]: 68%
inhibition [5]: 22%
inhibition [6]: 90%
inhibition [7]: 33%

O=C(Nc1ccccc1)Nc1ccccc1
inhibition [1]: 5%
inhibition [2]: 0%
inhibition [3]: 2%
inhibition [4]: 11%
inhibition [5]: 0%
inhibition [6]: 0%
inhibition [7]: 0%

O=C(Nc1ccccc1)Nc1cccc(C(F)(F)F)c1
inhibition [1]: 8%
inhibition [2]: 0%
inhibition [3]: 0%
inhibition [4]: 10%
inhibition [5]: 0%
inhibition [7]: 0%
